Test [1] has as its system mitochondrial transcription (7S RNA) in HeLa cells. Put plainly: Quantitative real time-PCR assay of inhibition of mitochondrial transcription (7S RNA) in HeLa cells. The class given is cell-based. Conditions: Homo sapiens, 4 h compound incubation, according to Example 5, read-out: cellular qPCR assay. Here is the method:
Quantitative real-time PCR (qRT-PCR), based on the TaqMan™ (Thermo Fisher Scientific, Waltham Mass.) technology, was carried out essentially as described in Held et al. (1996). HeLa cells were plated one day before compound treatment in RPMI medium supplemented with 10% Fetal Calf Serum and 2 mM L-glutamine. Cells were incubated with dilution series of compounds or vehicle (DMSO) for 4 h, prior to harvest and extraction of the RNA using the RNeasy Mini Kit (Qiagen, Hilden D), according to the manufacturer's instructions. RNA concentrations were measured spectroscopically, using a NanoDrop-2000 (Thermo Fisher Scientific, Waltham Mass.) and normalized prior to cDNA synthesis, using a ‘High-Capacity cDNA Reverse Transcription Kit’ (Thermo Fisher Scientific, Waltham Mass.). qRT-PCR was carried out using the ‘TaqMan Fast Advance Master Mix’ (Thermo Fisher Scientific, Waltham Mass.) on a 7500 Fast Real-Time PCR machine (Applied Biosystems, Foster City Calif.)
For these measurements, three genes were used to compare the effect of the scrutinized compounds in relation to their concentration. The POLRMT-gene was used to detect potential influences on nuclear transcription. Mitochondrial transcription in vivo was monitored by measurements 7S RNA. The TBP (TATA-box binding protein) gene was employed as the control (housekeeping gene) during qRT-PCR. The short-lived mitochondrial 7S RNA, which is not post-transcriptionally stabilized, allowed us to monitor rapid changes in mitochondrial transcription activity following compound addition. Biological triplicates were analyzed using the comparative CT Method (ΔΔCt) method (Bubner and Baldwin, 2004) and reported as Rq % values (Rq=Relative quantification=2−ΔΔCt).
Background: Quantitative PCR measures a nucleic acid by following its amplification.

In test [2] the target is mitochondrial RNA polymerase (POLRMT) (Mus musculus, UniProt Q8BKF1). Nature of the test: Homogeneous TR-FRET assay for mitochondrial transcription activity. The class given is biochemical. The note with it: homogeneous TR-FRET assay according to Example 4. The text has this: The TR-FRET assay was basically conducted as described in WO2016/193231A1, especially as described in example 1 (hereby incorporated by reference). With respect to the back ground of the mitochondrial transcription it is referred to Falkenberg et al. (2002) and Posse et al. (Posse et al., 2015). The method monitors the activity of mitochondrial RNA-polymerase via detection of the formation of its product, a 407 bp long RNA sequence. Detection of the product is facilitated by hybridization of two DNA-oligonucleotide probes to specific and adjacent sequences within the RNA product sequence. Upon annealing of the probes, two fluorophores that are coupled directly to an acceptor nucleotide probe (ATT0647, 5′) or introduced via a coupled streptavidin interacting with a biotinylated donor nucleotide probe on the other side (Europium cryptate, 3′) are brought into sufficient proximity to serve as a fluorescence-donor-acceptor pair as generally described in Walters and Namchuk (2003). Thus, a FRET signal at 665 nm is generated upon excitation at 340 nm.
Sequence of mitochondrial RNA polymerase (POLRMT) (Q8BKF1 42-1207): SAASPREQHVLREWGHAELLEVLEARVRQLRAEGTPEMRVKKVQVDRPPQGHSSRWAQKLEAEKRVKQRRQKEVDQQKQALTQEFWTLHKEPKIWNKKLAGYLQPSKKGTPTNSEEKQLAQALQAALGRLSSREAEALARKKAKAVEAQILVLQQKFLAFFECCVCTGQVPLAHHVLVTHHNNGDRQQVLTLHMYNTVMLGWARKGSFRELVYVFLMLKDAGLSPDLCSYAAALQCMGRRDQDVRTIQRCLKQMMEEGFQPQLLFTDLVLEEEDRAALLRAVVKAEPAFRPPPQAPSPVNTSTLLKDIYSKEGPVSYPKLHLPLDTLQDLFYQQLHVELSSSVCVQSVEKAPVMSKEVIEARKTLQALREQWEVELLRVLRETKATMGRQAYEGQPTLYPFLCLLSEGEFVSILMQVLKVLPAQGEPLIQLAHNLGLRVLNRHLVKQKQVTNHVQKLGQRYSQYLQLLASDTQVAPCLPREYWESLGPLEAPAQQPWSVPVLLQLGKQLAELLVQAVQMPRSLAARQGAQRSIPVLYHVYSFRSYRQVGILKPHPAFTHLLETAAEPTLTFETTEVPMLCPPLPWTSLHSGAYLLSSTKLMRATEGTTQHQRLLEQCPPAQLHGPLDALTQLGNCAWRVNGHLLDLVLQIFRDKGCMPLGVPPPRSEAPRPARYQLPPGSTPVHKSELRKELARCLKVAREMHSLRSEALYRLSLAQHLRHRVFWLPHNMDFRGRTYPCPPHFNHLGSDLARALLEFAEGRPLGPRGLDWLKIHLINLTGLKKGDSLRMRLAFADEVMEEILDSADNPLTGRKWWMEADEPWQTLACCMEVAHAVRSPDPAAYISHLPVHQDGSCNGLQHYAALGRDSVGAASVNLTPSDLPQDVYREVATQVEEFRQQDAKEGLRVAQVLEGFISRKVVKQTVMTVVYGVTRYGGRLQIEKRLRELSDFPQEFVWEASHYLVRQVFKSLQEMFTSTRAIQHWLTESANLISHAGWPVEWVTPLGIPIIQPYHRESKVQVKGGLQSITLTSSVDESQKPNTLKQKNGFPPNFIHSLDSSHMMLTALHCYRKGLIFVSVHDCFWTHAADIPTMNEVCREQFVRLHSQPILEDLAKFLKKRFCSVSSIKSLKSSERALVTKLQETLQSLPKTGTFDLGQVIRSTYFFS
Briefly, the protocol described here was applied for screening and activity determination in a low-volume 384-well microtiter plate with non-binding surface. For high-throughput application in the 1536-well microtiter plate format, volumes of the reagent mixes were adjusted, maintaining the volumetric ratio. Proteins POLRMT (NM_172551.3), TFAM (NM_009360.4) and TFB2M (NM_008249.4) were diluted from their stocks to working concentrations of 150 nM, 1.8 μM and 330 nM respectively, in a dilution buffer containing 100 mM Tris-HCl pH 8.0, 200 mM NaCl, 10% (v/v) glycerole, 2 mM glutathione (GSH), 0.5 mM EDTA and 0.1 mg/mL BSA. Protein dilutions and template DNA, comprising a pUC18 plasmid encoding the mitochondrial light strand promoter, restriction linearized proximal to the promoter 3′-end (pUC-LSP), were mixed at the twofold final assay-concentration in a reaction buffer, containing 10 mM Tris-HCl pH 7.5, 10 mM MgCl2, 40 mM NaCl, 2 mM GSH, 0.01% (w/v) Tween-20 and 0.1 mg/mL BSA.
5 μL of this mix were dispensed, depending on the chosen microtiter plate format, using multi-channel pipettes or a Multidrop® dispenser (Thermo Fisher Scientific, Waltham Mass.) into the wells of a microtiter plate and incubated at room temperature (rt) for 10 min. Chemical compounds under scrutiny in the assay were applied using contact-free acoustic droplet-dispensing (Echo520® Labcyte Inc., Sunnyvale Calif.) from 10 mM compound stocks in 100% DMSO, to a final concentration of 10 μM or in serial dilution series of the required concentration range. Equal amounts of DMSO without any compound were added to positive control samples, followed by an incubation step at rt for 10 min.
The enzymatic reaction was started by the addition of 5 μL of a mix of dNTPs in reaction buffer to a final concentration of 500 μM each. No nucleotide mix was added to negative control samples. The content of the wells was mixed using a VarioTeleshaker™ (Thermo Fisher Scientific, Waltham Mass.) at 1500 rpm for 45 sec after which the microtiter plate was centrifuged at 500×g for 1 min. The samples were incubated for 2 h at rt with humidity control to avoid evaporation. The detection reagents were prepared in a buffer that was composed, such that the enzymatic reaction was terminated due to chelating of Mg-ions and increased ionic strength, containing 50 mM Tris-HCl pH 7.5, 700 mM NaCl, 20 mM EDTA, and 0.01% (w/v) Tween-20. Importantly Eu-cryptate-coupled streptavidin had to be preincubated with a 100-fold molar excess of a random sequence oligonucleotide for 10 min at rt in the dark to block unspecific binding of single stranded RNA to the protein. Subsequently, the blocked streptavidin(-Eu) was mixed with the DNA-probes on ice and kept away from light until use. […]

The record followed here is US12281079B2, “Quinoline derivatives, processes for their preparation and uses thereof for the treatment of cancer” (Lead Discovery Center GmbH, priority 2019, dated 2025).

Structures are written as SMILES.

As to `Cc1ccccc1-c1cc(Cl)nc2cc(O[C@H](C)C(=O)N3CCC[C@H](C(N)=O)C3)ccc12` [Compound 52, (3S)-1-[(2R)-2-[[2-chloro-4-(o-tolyl)-7-quinolyl]oxy]propanoyl]piperidine-3-carboxamide], the IC50 in test [1] is 0.01 to 0.05 µM; in test [2] it was 0.1 to 1 µM. For `C[C@@H](Oc1ccc2c(-c3ccc(F)cc3Cl)ccnc2c1)C(=O)NC1CC1` [Compound 77, (2R)-2-[[4-(2-chloro-4-fluoro-phenyl)-7-quinolyl]oxy]-N-cyclopropyl-propanamide], in that order: 0.05 to 0.5 µM and 0.1 to 1 µM. In the same order, the values of `C[C@@H](Oc1ccc2c(-c3ccc(F)cc3Cl)ccnc2n1)C(=O)N1CCC[C@H](C(=O)O)C1` [Compound 126, (3S)-1-[(2R)-2-[[5-(2-chloro-4-fluoro-phenyl)-1,8-naphthyridin-2-yl]oxy]propanoyl]piperidine-3-carboxylic acid] are 0.01 to 0.05 µM and 0.1 to 1 µM. Consider `Cc1cc(F)cc(C)c1-c1ccnc2cc(O[C@H](C)C(=O)N3CCC[C@H](CC(=O)O)C3)ccc12` [Compound 183, 2-[(3R)-1-[(2R)-2-[[4-(4-fluoro-2,6-dimethyl-phenyl)-7-quinolyl]oxy]propanoyl]-3-piperidyl]acetic acid], for which the values for the IC50 in test [1] and in test [2] were below 0.01 µM and below 0.02 µM, respectively. For `C[C@@H](Oc1ccc2c(-c3ccc(F)cc3Cl)ccnc2c1)C(=O)N1CCOCC1` [Compound 206, (2R)-2-[[4-(2-chloro-4-fluoro-phenyl)-7-quinolyl]oxy]-1-morpholino-propan-1-one], in that order: 0.01 to 0.05 µM and 0.1 to 1 µM. `Cc1cc(-c2c(C)cccc2C)c2ccc(O[C@H](C)C(=O)N3CCC[C@@H](S(N)(=O)=O)C3)cc2n1` [Compound 114, (3R)-1-[(2R)-2-[[4-(2,6-dimethylphenyl)-2-methyl-7-quinolyl]oxy]propanoyl]piperidine-3-sulfonamide]: the IC50 in test [1] is 0.01 to 0.05 µM; in test [2] it was 0.1 to 1 µM. For `CC(C)N(C)C(=O)[C@@H](C)Oc1ccc2c(-c3ccc(F)cc3Cl)ccnc2c1` [Compound 32, (2R)-2-[[4-(2-chloro-4-fluoro-phenyl)-7-quinolyl]oxy]-N-isopropyl-N-methyl-propanamide], in that order: 0.01 to 0.05 µM and 0.1 to 1 µM. In the case of `C[C@@H](Oc1ccc2c(-c3c(Cl)cc(F)cc3Cl)ccnc2c1)C(=O)N1CCCC2(CC2C(=O)O)C1` (mixture of isomers) [Compound 177, 5-[rac-(2R)-2-[[4-(2,6-dichloro-4-fluoro-phenyl)-7-quinolyl]oxy]propanoyl]-5-azaspiro[2.5]octane-2-carboxylic acid], the IC50 is below 0.01 µM in test [1] and below 0.02 µM in test [2]. For `CC(=O)N(O)[C@H]1CCCN(C(=O)[C@@H](C)Oc2ccc3c(-c4ccc(F)cc4Cl)ccnc3c2)C1` [Compound 209, N-hydroxy-N-[(3S)-1-[(2R)-2-[[4-(2-chloro-4-fluoro-phenyl)-7-quinolyl]oxy]propanoyl]-3-piperidyl]acetamide], in that order: 0.01 to 0.05 µM and 0.1 to 1 µM.

As to `C[C@@H](Oc1ccc2c(-c3ccc(F)cc3Cl)ccnc2c1)C(=O)N1CCCCC1` [Compound 20, (2R)-2[[4-(2-chloro-4-fluoro-phenyl)-7-quinolyl]oxy]-1-(1-piperidyl)propan-1-one], the IC50 in test [1] lay in the range of 0.01 to 0.05 µM; in test [2], 0.02 to 0.1 µM. For `CC(C)NC(=O)[C@@H](C)Oc1ccc2c(-c3ccccc3Cl)ccnc2c1` [Compound 48, (2R)-2-[[4-(2-chlorophenyl)-7-quinolyl]oxy]-N-isopropyl-propanamide], in that order: 0.05 to 0.5 µM and 0.1 to 1 µM.

As to `C[C@@H](Oc1ccc2c(-c3ccc(F)cc3Cl)ccnc2c1)C(=O)N1CCCC1` [Compound 42, (2R)-2-[[4-(2-chloro-4-fluoro-phenyl)-7-quinolyl]oxy]-1-pyrrolidin-1-yl-propan-1-one], the IC50 in test [1] was 0.05 to 0.5 µM; in test [2], 0.1 to 1 µM. For `CC(Oc1ccc2c(-c3ccccc3Cl)ccnc2c1)C(=O)N(C)C` (centres unmarked) [Compound 86, 2-[[4-(2-chlorophenyl)-7-quinolyl]oxy]-N,N-dimethyl-propanamide], the IC50 in test [1] lay within 0.05 to 0.5 µM; in test [2], 1 to 10 µM.

Turning to `C[C@@H](Oc1ccc2c(-c3ccccc3Cl)ccnc2c1)C(=O)N1CCCCC1` [Compound 53, (2R)-2-[[4-(2-chlorophenyl)-7-quinolyl]oxy]-1-(1-piperidyl)propan-1-one], the results for the IC50 in test [1] and in test [2] were 0.01 to 0.05 µM and 0.1 to 1 µM, respectively.

Regarding `C[C@@H](Oc1ccc2c(-c3ccccc3F)ccnc2c1)C(=O)N1CCC[C@H](CC(=O)O)C1` [Compound 110, 2-[(3R)-1-[(2R)-2-[[4-(2-fluorophenyl)-7-quinolyl]oxy]propanoyl]-3-piperidyl]acetic acid], in test [2], the IC50 was 1 to 10 µM. Compound `CCC(=O)N1CCN(C(=O)[C@@H](C)Oc2ccc3c(-c4ccccc4Cl)cc(Cl)nc3c2)CC1` [Compound 72, (2R)-2-[[2-chloro-4-(2-chlorophenyl)-7-quinolyl]oxy]-1-(4-propanoylpiperazin-1-yl)propan-1-one] yielded an IC50 in test [2] of 0.1 to 1 µM. In test [2], `Cc1ccsc1-c1ccnc2cc(O[C@H](C)C(=O)N3CCC[C@H](CC(=O)O)C3)ccc12` [Compound 134, 2-[(3R)-1-[(2R)-2-[[4-(3-methyl-2-thienyl)-7-quinolyl]oxy]propanoyl]-3-piperidyl]acetic acid] yielded an IC50 of 1 to 10 µM. As for `C[C@@H](Oc1ccc2c(-c3ccc(F)cc3Cl)cc(Cl)nc2c1)C(=O)O` [Compound 91, (2R)-2-[[2-chloro-4-(2-chloro-4-fluoro-phenyl)-7-quinolyl]oxy]propanoic acid], in test [2], the IC50 lay within 1 to 10 µM. On the same count and under the same terms, as for `Cc1cccc(C)c1-c1ccnc2cc(O[C@H](C)C(=O)N3CCC[C@H](S(N)(=O)=O)C3)ccc12` [Compound 138, (3S)-1-[(2R)-2-[[4-(2,6-dimethylphenyl)-7-quinolyl]oxy]propanoyl]piperidine-3-sulfonamide], the figure is below 0.02 µM; as for `Cc1cc(-c2ccccc2C)c2ccc(O[C@H](C)C(=O)N3CCC[C@H](C(=O)OC(C)(C)C)C3)cc2n1` [Compound 111], 1 to 10 µM.

`Cc1cccc(C)c1-c1ccnc2cc(O[C@H](C)C(=O)N3CCC[C@@H](S(N)(=O)=O)C3)ccc12` [Compound 172, (3R)-1-[(2R)-2-[[4-(2,6-dimethylphenyl)-7-quinolyl]oxy]propanoyl]piperidine-3-sulfonamide] came in with an IC50 in test [2] below 0.02 µM.
